From EP4667483A1, “HUMAN TRANSFERRIN RECEPTOR-BINDING PEPTIDE” (JCR Pharmaceuticals Co., Ltd., priority 2023, dated 2024)
Numbered stars: 1 amine (or outer) side, 2 acyl side, 3 side chain; on linkers, the order of the positions; unused ones are H or OH. Bridge positions count the residues as written; N and C are the ends. Square brackets hold non-standard residues; d marks the D form. Peptide text beside a SMILES is read from it. * marks the point of attachment. Ala(imidazo(1,2-a)pyr3yl) = N[C@@H](Cc1cnc2ccccn12)C(=O)O; Trp(1-CH2COOH) = N[C@@H](Cc1cn(CC(=O)O)c2ccccc12)C(=O)O; NMePhe(4-COOH) = CN[C@@H](Cc1ccc(C(=O)O)cc1)C(=O)O; X1 = O=C([C@H](Cc1cccc(C(=O)[*:3])c1)N[*:1])[*:2]; Phe(3-COOH) = N[C@@H](Cc1cccc(C(=O)O)c1)C(=O)O; Trp(7-aza) = N[C@@H](Cc1c[nH]c2ncccc12)C(=O)O; NMePhe(3-Cl) = CN[C@@H](Cc1cccc(Cl)c1)C(=O)O; Trp(1-Me) = Cn1cc(C[C@H](N)C(=O)O)c2ccccc21; 3Pal(6-NH2) = Nc1ccc(C[C@H](N)C(=O)O)cn1; NMeW = CN[C@@H](Cc1c[nH]c2ccccc12)C(=O)O; PEG8 = NCCOCCOCCOCCOCCOCCOCCOCCOCCC(=O)O; Lys(N3) = [N-]=[N+]=NCCCC[C@H](N)C(=O)O; NMeY = CN[C@@H](Cc1ccc(O)cc1)C(=O)O; Nva(3-Et) = CCC(CC)[C@H](N)C(=O)O; NMeF = CN[C@@H](Cc1ccccc1)C(=O)O; 4Pal = N[C@@H](Cc1ccncc1)C(=O)O; PEG4 = NCCOCCOCCOCCOCCC(=O)O; Carboxymethyl = O=C(O)C*; NH(CH2)3NH2 = NCCCN*

How the values were obtained:
[1] = biological target: T1, human transferrin receptor (hTfR) (Homo sapiens, UniProt P02786); assay: SPR measurement under pH 7.4 conditions (Biacore T200, CM3 chip, hTfR captured by His Tag antibody); format: binding; details: read-out: hTfR SPR pH7.4 KD
T1 sequence (P02786 whole entry): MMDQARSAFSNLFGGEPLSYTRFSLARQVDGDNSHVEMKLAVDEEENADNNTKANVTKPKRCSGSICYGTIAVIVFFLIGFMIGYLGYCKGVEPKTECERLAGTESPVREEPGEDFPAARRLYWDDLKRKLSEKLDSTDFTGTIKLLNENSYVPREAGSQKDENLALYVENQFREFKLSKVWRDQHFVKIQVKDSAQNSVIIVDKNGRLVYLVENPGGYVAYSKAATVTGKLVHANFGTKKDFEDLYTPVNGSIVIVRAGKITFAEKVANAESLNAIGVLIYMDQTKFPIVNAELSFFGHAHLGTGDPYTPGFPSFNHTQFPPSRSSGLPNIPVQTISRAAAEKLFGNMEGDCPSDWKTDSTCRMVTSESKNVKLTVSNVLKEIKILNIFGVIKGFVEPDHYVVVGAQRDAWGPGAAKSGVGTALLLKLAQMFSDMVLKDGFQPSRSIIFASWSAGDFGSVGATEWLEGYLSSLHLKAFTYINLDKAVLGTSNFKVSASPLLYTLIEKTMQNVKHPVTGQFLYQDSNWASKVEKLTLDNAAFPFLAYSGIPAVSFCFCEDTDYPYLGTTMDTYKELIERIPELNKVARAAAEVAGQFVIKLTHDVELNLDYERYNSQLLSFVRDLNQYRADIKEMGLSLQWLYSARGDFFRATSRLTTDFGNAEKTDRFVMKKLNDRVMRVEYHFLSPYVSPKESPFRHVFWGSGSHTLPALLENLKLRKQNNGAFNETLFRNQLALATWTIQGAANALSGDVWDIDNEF

[2] = biological target: T1, human transferrin receptor (hTfR); assay: SPR measurement under pH 6.0 conditions (Biacore T200, NTA chip, immobilized hTfR); format: binding; details: read-out: hTfR SPR pH6.0 KD
[3] = SPR, pH 7.4, peptide with the linker named in the table
[4] = SPR, pH 6.0, peptide with the linker named in the table

Row | SMILES | Kd [1, 3] [nM] | Kd [2, 4] [nM] | Kd ([1]; pH 7.4, single-cycle kinetics) [nM] | Kd ([2]; pH 6.0, single-cycle kinetics) [nM] | other results
1 | CCC(CC)[C@@H]1NC(=O)[C@H](Cc2ccc(OC)cc2)NC(=O)[C@H](Cc2ccc(O)cc2)NC(=O)[C@H](CC(N)=O)NC(=O)[C@H](Cc2c[nH]c3ccccc23)NC(=O)[C@H](C(C)C)NC(=O)[C@H](Cc2cccc(Cl)c2)N(C)C(=O)[C@H](C(C)C)NC(=O)[C@H](C)NC(=O)CSC[C@@H](C(=O)NCCOCCOCCOCCOCCC(N)=O)NC(=O)[C@H](Cc2ccc(C(=O)O)cc2)N(C)C(=O)[C@H](Cc2cccc(C(=O)NCCOCCOCCOCCOCCC(=O)O)c2)NC(=O)[C@H](CCCNC(=N)N)NC(=O)[C@H](CCC(N)=O)NC(=O)[C@H]([C@@H](C)CC)NC1=O [compound 111] ({CH2CO}-AV[NMePhe(3-Cl)]VWNYY(Me)[Nva(3-Et)]IQR[X1](PEG4)[NMePhe(4-COOH)]C[PEG4]-NH2; thioether N-15) | 2.06 | 3.47 |  |  | 
2 | CC[C@H](C)[C@@H]1NC(=O)[C@H](Cc2ccc(OC)cc2)NC(=O)[C@H](Cc2ccc(N)nc2)NC(=O)[C@H](CC(N)=O)NC(=O)[C@H](Cc2c[nH]c3ncccc23)NC(=O)[C@H](C(C)C)NC(=O)[C@H](Cc2cccc(Cl)c2)N(C)C(=O)[C@H](C(C)C)NC(=O)[C@H](C)NC(=O)CSC[C@@H](C(=O)NCC(=O)N[C@@H](CCCCN=[N+]=[N-])C(N)=O)NC(=O)[C@H](Cc2ccc(O)cc2)N(C)C(=O)[C@H](Cc2ccncc2)NC(=O)[C@H](CCCNC(=N)N)NC(=O)[C@H](CCCNC(=N)N)NC(=O)[C@H]([C@@H](C)CC)NC1=O [compound 66] |  |  | 2.27 | 16.1 | 
3 | CCC(CC)[C@@H]1NC(=O)[C@H](Cc2ccc(OC)cc2)NC(=O)[C@H](Cc2ccc(O)cc2)NC(=O)[C@H](CC(N)=O)NC(=O)[C@H](Cc2cn(C)c3ccccc23)NC(=O)[C@H](C(C)C)NC(=O)[C@H](Cc2cccc(Cl)c2)N(C)C(=O)[C@H](C(C)C)NC(=O)[C@H](C)NC(=O)CSC[C@@H](C(=O)NCCOCCOCCOCCOCCC(N)=O)NC(=O)[C@H](Cc2ccc(O)cc2)N(C)C(=O)[C@H](Cc2ccncc2)NC(=O)[C@H](CCCNC(=N)N)NC(=O)[C@H](CCCCN)NC(=O)[C@H]([C@@H](C)CC)NC1=O [compound 128] ({CH2CO}-AV[NMePhe(3-Cl)]V[Trp(1-Me)]NYY(Me)[Nva(3-Et)]IKR[4Pal][NMeY]C[PEG4]-NH2; thioether N-15) | 1.1 | 3.23 |  |  | 
4 | CCC(CC)[C@@H]1NC(=O)[C@H](Cc2ccc(O)cc2)NC(=O)[C@H](Cc2ccc(N)nc2)NC(=O)[C@H](CC(N)=O)NC(=O)[C@H](Cc2c[nH]c3ccccc23)N(C)C(=O)[C@H](C(C)C)NC(=O)[C@H](Cc2cccc(Cl)c2)N(C)C(=O)[C@H](C(C)C)NC(=O)[C@H](C)NC(=O)CSC[C@@H](C(=O)NCCOCCOCCOCCOCCC(N)=O)NC(=O)[C@H](Cc2ccc(O)cc2)N(C)C(=O)[C@H](Cc2ccc(O)cc2)NC(=O)[C@H](CCCNC(=N)N)NC(=O)[C@H](CCCCN)NC(=O)[C@H]([C@@H](C)CC)NC1=O [compound 134] ({CH2CO}-AV[NMePhe(3-Cl)]V[NMeW]N[3Pal(6-NH2)]Y[Nva(3-Et)]IKRY[NMeY]C[PEG4]-NH2; thioether N-15) | 4.58 | 3.95 |  |  | 
5 | CCC(CC)[C@@H]1NC(=O)[C@H](Cc2ccc(OCC(=O)O)cc2)NC(=O)[C@H](Cc2ccc(O)cc2)NC(=O)[C@H](CC(N)=O)NC(=O)[C@H](Cc2cn(CC(=O)O)c3ccccc23)NC(=O)[C@H](C(C)C)NC(=O)[C@H](Cc2cccc(Cl)c2)N(C)C(=O)[C@H](C(C)C)NC(=O)[C@H](C)NC(=O)CSC[C@@H](C(=O)NCCOCCOCCOCCOCCC(N)=O)NC(=O)[C@H](Cc2cccc(Cl)c2)N(C)C(=O)[C@H](Cc2cccc(C(=O)O)c2)NC(=O)[C@H](CCCNC(=N)N)NC(=O)[C@H](CCC(N)=O)NC(=O)[C@H]([C@@H](C)CC)NC1=O [compound 94] ({CH2CO}-AV[NMePhe(3-Cl)]V[Trp(1-CH2COOH)]NYY(Carboxymethyl)[Nva(3-Et)]IQR[Phe(3-COOH)][NMePhe(3-Cl)]C[PEG4]-NH2; thioether N-15) | 12 | 62 |  |  | 
6 | CCC(CC)[C@@H]1NC(=O)[C@H](Cc2ccc(OCC(=O)O)cc2)NC(=O)[C@H](Cc2ccc(O)cc2)NC(=O)[C@H](CC(N)=O)NC(=O)[C@H](Cc2cnc3ccccn23)NC(=O)[C@H](C(C)C)NC(=O)[C@H](Cc2cccc(Cl)c2)N(C)C(=O)[C@H](C(C)C)NC(=O)[C@H](C)NC(=O)CSC[C@@H](C(=O)NCC(=O)N[C@@H](CCCCN=[N+]=[N-])C(N)=O)NC(=O)[C@H](Cc2ccc(O)cc2)N(C)C(=O)[C@H](Cc2cccc(C(=O)O)c2)NC(=O)[C@H](CCCNC(=N)N)NC(=O)[C@H](CCC(N)=O)NC(=O)[C@H]([C@@H](C)CC)NC1=O [compound 67] ({CH2CO}-AV[NMePhe(3-Cl)]V[Ala(imidazo(1,2-a)pyr3yl)]NYY(Carboxymethyl)[Nva(3-Et)]IQR[Phe(3-COOH)][NMeY]CG[Lys(N3)]-NH2; thioether N-15) |  |  | 21.6 | 444 | 
7 | CC[C@H](C)[C@@H]1NC(=O)[C@H](Cc2ccc(O)cc2)NC(=O)[C@H](Cc2ccc(N)nc2)NC(=O)[C@H](CC(N)=O)NC(=O)[C@H](Cc2c[nH]c3ccccc23)N(C)C(=O)[C@H](C(C)C)NC(=O)[C@H](Cc2ccccc2)N(C)C(=O)[C@H](C(C)C)NC(=O)[C@H](C)NC(=O)CSC[C@@H](C(=O)NCC(=O)N[C@@H](CCCCN=[N+]=[N-])C(N)=O)NC(=O)[C@H](Cc2ccc(C(=O)O)cc2)N(C)C(=O)[C@H](Cc2ccc(O)cc2)NC(=O)[C@H](CCCNC(=N)N)NC(=O)[C@H](CCCCN)NC(=O)[C@H]([C@@H](C)CC)NC1=O [compound 196] ({CH2CO}-AV[NMeF]V[NMeW]N[3Pal(6-NH2)]YIIKRY[NMePhe(4-COOH)]CG[Lys(N3)]-NH2; thioether N-15) |  |  |  |  | Kd ([1]; SPR, pH 7.4, Table 1-3-2-2): 2.94 nM; Kd ([2]; SPR, pH 6.0, Table 1-3-2-2): 13.9 nM
8 | CCC(CC)[C@@H]1NC(=O)[C@H](Cc2ccc(OCC(=O)O)cc2)NC(=O)[C@H](Cc2ccc(N)nc2)NC(=O)[C@H](CC(N)=O)NC(=O)[C@H](Cc2c[nH]c3ncccc23)NC(=O)[C@H](C(C)C)NC(=O)[C@H](Cc2cccc(Cl)c2)N(C)C(=O)[C@H](C(C)C)NC(=O)[C@H](C)NC(=O)CSC[C@@H](C(=O)NCCOCCOCCOCCOCCC(N)=O)NC(=O)[C@H](Cc2ccc(O)cc2)N(C)C(=O)[C@H](Cc2cccc(C(=O)NCCOCCOCCOCCOCCC(=O)O)c2)NC(=O)[C@H](CCCNC(=N)N)NC(=O)[C@H](CCC(N)=O)NC(=O)[C@H]([C@@H](C)CC)NC1=O [compound 44] ({CH2CO}-AV[NMePhe(3-Cl)]V[Trp(7-aza)]N[3Pal(6-NH2)]Y(Carboxymethyl)[Nva(3-Et)]IQR[X1](PEG4)[NMeY]C[PEG4]-NH2; thioether N-15) |  |  | 36.6 | 339 | 
9 | CC[C@H](C)[C@@H]1NC(=O)[C@H](Cc2ccc(OC)cc2)NC(=O)[C@H](Cc2ccc(N)nc2)NC(=O)[C@H](CC(N)=O)NC(=O)[C@H](Cc2cnc3ccccn23)NC(=O)[C@H](C(C)C)NC(=O)[C@H](Cc2cccc(Cl)c2)N(C)C(=O)[C@H](C(C)C)NC(=O)[C@H](C)NC(=O)CSC[C@@H](C(=O)NCC(=O)N[C@@H](CCCCN=[N+]=[N-])C(N)=O)NC(=O)[C@H](Cc2ccc(O)cc2)N(C)C(=O)[C@H](Cc2ccncc2)NC(=O)[C@H](CCCNC(=N)N)NC(=O)[C@H](CCCNC(=N)N)NC(=O)[C@H]([C@@H](C)CC)NC1=O [compound 197] ({CH2CO}-AV[NMePhe(3-Cl)]V[Ala(imidazo(1,2-a)pyr3yl)]N[3Pal(6-NH2)]Y(Me)IIRR[4Pal][NMeY]CG[Lys(N3)]-NH2; thioether N-15) |  |  |  |  | Kd ([1]; SPR, pH 7.4, Table 1-3-2-2): 5.09 nM; Kd ([2]; SPR, pH 6.0, Table 1-3-2-2): 43.9 nM

Continued, in another order:

Row | Kd [1, 3] [nM] | Kd [2, 4] [nM] | Kd ([1]; pH 7.4, single-cycle kinetics) [nM] | Kd ([2]; pH 6.0, single-cycle kinetics) [nM] | SMILES | other results
10 | 107 | 524 |  |  | CC[C@H](C)[C@@H]1NC(=O)[C@H](Cc2ccc(OCC(=O)O)cc2)NC(=O)[C@H](Cc2ccc(O)cc2)NC(=O)[C@H](CC(N)=O)NC(=O)[C@H](Cc2c[nH]c3ncccc23)NC(=O)[C@H](C(C)C)NC(=O)[C@H](Cc2cccc(Cl)c2)N(C)C(=O)[C@H](C(C)C)NC(=O)[C@H](C)NC(=O)CSC[C@@H](C(=O)NCCOCCOCCOCCOCCC(N)=O)NC(=O)[C@H](Cc2ccc(O)cc2)N(C)C(=O)[C@H](CCC(=O)NCCOCCOCCOCCOCCOCCOCCOCCOCCC(=O)O)NC(=O)[C@H](CCCNC(=N)N)NC(=O)[C@H](CCC(N)=O)NC(=O)[C@H]([C@@H](C)CC)NC1=O [compound 139] ({CH2CO}-AV[NMePhe(3-Cl)]V[Trp(7-aza)]NYY(Carboxymethyl)IIQRE(PEG8)[NMeY]C[PEG4]-NH2; thioether N-15) | 
11 | 48.5 | 199 |  |  | CC[C@H](C)[C@@H]1NC(=O)[C@H](Cc2ccc(OC)cc2)NC(=O)[C@H](Cc2ccc(O)cc2)NC(=O)[C@H](CC(N)=O)NC(=O)[C@H](Cc2c[nH]c3ncccc23)NC(=O)[C@H](C(C)C)NC(=O)[C@H](Cc2cccc(Cl)c2)N(C)C(=O)[C@H](C(C)C)NC(=O)[C@H](C)NC(=O)CSC[C@@H](C(=O)NCCOCCOCCOCCOCCC(N)=O)NC(=O)[C@H](Cc2ccc(O)cc2)N(C)C(=O)[C@H](CCC(=O)NCCOCCOCCOCCOCCC(=O)O)NC(=O)[C@H](CCCNC(=N)N)NC(=O)[C@H](CCC(=O)NCCOCCOCCOCCOCCC(=O)O)NC(=O)[C@H]([C@@H](C)CC)NC1=O [compound 145] ({CH2CO}-AV[NMePhe(3-Cl)]V[Trp(7-aza)]NYY(Me)IIE(PEG4)RE(PEG4)[NMeY]C[PEG4]-NH2; thioether N-15) | 
12 |  |  | 0.215 | 2.59 | CC[C@H](C)[C@@H]1NC(=O)[C@H](Cc2ccc(OC)cc2)NC(=O)[C@H](Cc2ccc(N)nc2)NC(=O)[C@H](CC(N)=O)NC(=O)[C@H](Cc2c[nH]c3ccccc23)N(C)C(=O)[C@H](C(C)C)NC(=O)[C@H](Cc2cccc(Cl)c2)N(C)C(=O)[C@H](C(C)C)NC(=O)[C@H](C)NC(=O)CSC[C@@H](C(=O)NCCOCCOCCOCCOCCC(N)=O)NC(=O)[C@H](Cc2ccc(O)cc2)N(C)C(=O)[C@H](Cc2ccccc2)NC(=O)[C@H](CCCNC(=N)N)NC(=O)[C@H](CCC(=O)NCCCN)NC(=O)[C@H]([C@@H](C)CC)NC1=O [compound 172] ({CH2CO}-AV[NMePhe(3-Cl)]V[NMeW]N[3Pal(6-NH2)]Y(Me)IIE(NH(CH2)3NH2)RF[NMeY]C[PEG4]-NH2; thioether N-15) | 
